Experimental findings from patent EP0498222A1, “Novel peptides” (SUMITOMO CHEMICAL COMPANY LIMITED, priority 1991, dated 1992) are described below.

Positions of bridges follow the written chain, without caps; N, C: chain ends. Residues, ends and D or L forms follow the SMILES beside them.

Test [1] deals with last instar larvae of Pseudaletia separata. In words: Effect on growth (body weight) of last instar larvae after injection. As to conditions: 7 picomoles injected on day 0, day 1 and day 2 of last instar; weight checked until day 3; control about 2.5 times day 0 weight on day 3. It counts as in vivo. The procedure: To examine the effect of peptide I-a on the growth of last instar larvae of Pseudaletia separata, last instar larvae of P. separata were injected with 7 picomoles of peptide I-a for consecutive three days (day 0, day 1 and day 2). They were reared on an artificial diet and the weight of each larva was checked until day 3. […] The open circles ( ⃝) indicate the body weights of the last instar larvae injected with 7 picomoles of peptide I-a on day 0, day 1 and day 2 while the closed circles (●) indicate the body weights of last instar larvae injected with Ringer's solution on day 0, day 1 and day 2.

The test system of another test is JH esterase. In words: JH esterase activity assay of hemolymph from injected larvae, (10-3H)JH I as substrate. It counts as in vivo, Pseudaletia separata. The conditions noted are these: predetermined doses injected on day 1 and day 2; hemolymph collected on day 3. The procedure:
The purified peptide I-a was diluted with Ringer's solution and injected, at a predetermined dose, into unparasitized last instar larvae of Pseudaletia separata on day 1 and day 2. The larvae were further reared on an artificial diet. On day 3, hemolymph was prepared from the larvae and centrifuged (500 x g, 4°C, 5 minutes). The supernatant thus collected was subjected to JH esterase activity assay. (10-³H)JH I was used as the substrate for activity assay and the JH-metabolizing activity was estimated based on the proportion of JH acid to the total product formed under the action of JH esterase.

The subject of test [2] is unparasitized last instar larvae of Pseudaletia separata. In words: Insect development controlling activity (growth stage checked at 24-hour intervals). It counts as in vivo. The conditions noted are these: 7 picomoles injected on day 1 and day 2; control Ringer's solution. On the procedure:
The purified peptide I-a was dissolved with Ringer's solution and injected, at a dose of 7 picomoles, into unparasitized last instar larvae of Pseudaletia separata on day 1 and day 2. Then the growth stage (larva, prepupa, pupa, or dead) of each larva was checked at 24-hour intervals and the number of individuals in each stage was recorded. Control larvae were injected with Ringer's solution alone.

In the case of `CSCC[C@@H]1NC(=O)[C@H](Cc2ccc(O)cc2)NC(=O)CNC(=O)[C@H](C)NC(=O)[C@H](C(C)C)NC(=O)[C@@H](NC(=O)CNC(=O)CNC(=O)[C@H](CO)NC(=O)[C@H](Cc2ccccc2)NC(=O)[C@H](CC(N)=O)NC(=O)[C@@H](N)CCC(=O)O)CSSC[C@@H](C(=O)N[C@@H](CCCCN)C(=O)N2CCC[C@H]2C(=O)N[C@H](C(=O)N[C@@H](Cc2ccccc2)C(=O)N[C@@H](Cc2ccc(O)cc2)C(=O)N[C@@H](CCC(N)=O)C(N)=O)[C@@H](C)O)NC(=O)[C@H](CCCNC(=N)N)NC(=O)CNC(=O)[C@H](CC(=O)O)NC(=O)[C@@H]2CCCN2C(=O)[C@H]([C@@H](C)O)NC(=O)[C@H](CCCNC(=N)N)NC1=O` [peptide I-a] (H-ENFSGGCVAGYMRTPDGRCKPTFYQ-NH2; disulfide 7-19), the body weight change result in test [1] is “only slight increases in body weight”. Moreover, in the test on JH esterase, the JH esterase activity result is recorded as “repressed the JH esterase activity in a dose dependent manner”. Moreover, in test [2], the “prepupal stage came later than in control larvae” value amounted to 2 days and the “pupation later than in control larvae” value is “more than 2 days”.
